In general, IC50 refers to the concentration needed to halve the response being measured. The inhibition is the drop in the measured response relative to a control, in per cent.

The assay concerns the target CDK12 (Homo sapiens, UniProt Q9NYV4). Description: Biochemical assay for CDK12 (LANCE TR-FRET, IC50 determination). To be noted: for IC50: CDK12, IC50 class, read-out: IC50 μM (in range); for inhibition at 10 µM: compound at 10 μM, read-out: CDK12 % Inhibition @ 10 μM. A digest of the protocol:
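30 nM CDK12 phosphorylated 100 nM ULight-4E-BP1 (Thr37/Thr46) peptide at 100 µM ATP, as printed, in HEPES pH 7.5 buffer with MgCl2 and DTT. Compound and enzyme were preincubated 60 min, then reacted 60 min at room temperature before stopping with EDTA and Eu anti-phospho antibody. TR-FRET 665/615 ratio gave sigmoidal IC50 fits.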

CDK12, sequence (Q9NYV4 whole entry): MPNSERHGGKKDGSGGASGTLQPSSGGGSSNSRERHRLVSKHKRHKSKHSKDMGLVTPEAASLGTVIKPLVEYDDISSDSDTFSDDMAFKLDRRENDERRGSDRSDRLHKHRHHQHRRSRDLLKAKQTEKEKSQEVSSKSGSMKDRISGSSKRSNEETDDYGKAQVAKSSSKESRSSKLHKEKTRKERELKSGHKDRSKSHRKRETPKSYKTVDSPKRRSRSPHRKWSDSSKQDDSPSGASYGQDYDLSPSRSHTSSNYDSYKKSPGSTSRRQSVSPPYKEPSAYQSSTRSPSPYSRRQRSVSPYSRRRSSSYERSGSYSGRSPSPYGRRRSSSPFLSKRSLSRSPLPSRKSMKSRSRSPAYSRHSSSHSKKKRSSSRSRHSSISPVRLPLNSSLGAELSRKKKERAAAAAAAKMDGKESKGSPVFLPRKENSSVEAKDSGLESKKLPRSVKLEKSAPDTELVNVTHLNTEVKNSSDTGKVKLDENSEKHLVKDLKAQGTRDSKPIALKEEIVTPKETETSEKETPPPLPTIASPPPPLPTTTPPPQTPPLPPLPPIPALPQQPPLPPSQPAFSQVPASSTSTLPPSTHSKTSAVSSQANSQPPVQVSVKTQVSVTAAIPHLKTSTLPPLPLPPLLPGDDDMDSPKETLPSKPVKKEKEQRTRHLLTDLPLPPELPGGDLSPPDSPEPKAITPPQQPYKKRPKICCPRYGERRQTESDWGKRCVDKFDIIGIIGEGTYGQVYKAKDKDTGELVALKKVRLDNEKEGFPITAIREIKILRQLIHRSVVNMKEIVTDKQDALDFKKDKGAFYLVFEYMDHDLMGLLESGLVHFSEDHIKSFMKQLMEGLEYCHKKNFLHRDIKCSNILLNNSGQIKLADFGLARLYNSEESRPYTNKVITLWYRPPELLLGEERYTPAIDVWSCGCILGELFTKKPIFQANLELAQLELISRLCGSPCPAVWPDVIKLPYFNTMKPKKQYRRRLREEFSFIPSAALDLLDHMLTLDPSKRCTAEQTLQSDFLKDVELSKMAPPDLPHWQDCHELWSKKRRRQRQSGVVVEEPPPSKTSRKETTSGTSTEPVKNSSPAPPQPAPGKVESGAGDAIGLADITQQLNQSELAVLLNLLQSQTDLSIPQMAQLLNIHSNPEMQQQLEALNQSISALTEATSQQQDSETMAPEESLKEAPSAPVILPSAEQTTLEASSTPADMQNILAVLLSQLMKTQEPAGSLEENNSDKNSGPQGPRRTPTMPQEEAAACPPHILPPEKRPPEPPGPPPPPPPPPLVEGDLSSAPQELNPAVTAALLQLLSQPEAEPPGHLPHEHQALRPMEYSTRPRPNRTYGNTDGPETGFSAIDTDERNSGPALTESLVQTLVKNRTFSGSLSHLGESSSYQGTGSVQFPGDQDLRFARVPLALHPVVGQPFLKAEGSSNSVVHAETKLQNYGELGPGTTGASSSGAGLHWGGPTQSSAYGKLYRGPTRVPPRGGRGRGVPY
CDK12, sequence (O75909 whole entry partner): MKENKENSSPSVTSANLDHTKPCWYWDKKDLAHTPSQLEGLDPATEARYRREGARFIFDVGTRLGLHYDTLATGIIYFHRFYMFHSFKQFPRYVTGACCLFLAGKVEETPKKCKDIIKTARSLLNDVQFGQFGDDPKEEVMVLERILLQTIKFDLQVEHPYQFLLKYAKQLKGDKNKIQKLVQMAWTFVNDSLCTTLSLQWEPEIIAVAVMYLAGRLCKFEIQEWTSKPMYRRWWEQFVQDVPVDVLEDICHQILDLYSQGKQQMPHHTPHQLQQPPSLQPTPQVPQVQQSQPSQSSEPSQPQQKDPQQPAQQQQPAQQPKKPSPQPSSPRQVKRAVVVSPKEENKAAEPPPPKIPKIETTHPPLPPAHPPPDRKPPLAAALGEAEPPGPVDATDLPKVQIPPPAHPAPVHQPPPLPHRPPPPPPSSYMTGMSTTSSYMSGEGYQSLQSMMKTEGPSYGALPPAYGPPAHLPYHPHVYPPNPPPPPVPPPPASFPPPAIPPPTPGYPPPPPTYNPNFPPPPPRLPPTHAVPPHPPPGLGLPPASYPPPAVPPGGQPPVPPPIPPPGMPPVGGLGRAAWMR

As for `CN1CCC[C@@H](Oc2cc(NC(=O)Cc3ccc(C4=CCN(C#N)CC4)nc3)ncc2Cl)C1` [Compound 32, (R)-N-(5-chloro-4-((1-methylpiperidin-3-yl)oxy)pyridin-2-yl)-2-(1′-cyano-1′,2′,3′,6′-tetrahydro-[2,4′-bipyridin]-5-yl)acetamide], the IC50 is less than 0.01 µM and the inhibition at 10 µM amounted to 84%.
As for `CN1CCC[C@H](Oc2cc(NC(=O)Cc3ccc(C4=CCN(C#N)CC4)nc3)ncc2Cl)C1` [Compound 33, (S)-N-(5-chloro-4-((1-methylpiperidin-3-yl)oxy)pyridin-2-yl)-2-(1′-cyano-1′,2′,3′,6′-tetrahydro-[2,4′-bipyridin]-5-yl)acetamide], the IC50 was less than 0.01 µM and the inhibition at 10 µM was found to be 88%.
On the same counts, the results for `COc1cc(NC(=O)Cc2ccc(C3=CCCN(C#N)C3)nc2)ncc1Cl` [Compound 34, N-(5-chloro-4-methoxypyridin-2-yl)-2-(1′-cyano-1′,2′,5′,6′-tetrahydro-[2,3′-bipyridin]-5-yl)acetamide] are less than 0.01 µM and 91%.
On the same counts, the results for `COC[C@H](C)Oc1cc(NC(=O)Cc2ccc(C3=CCCN(C#N)C3)nc2)ncc1Cl` [Compound 35, (S)-N-(5-chloro-4-((1-methoxypropan-2-yl)oxy)pyridin-2-yl)-2-(1′-cyano-1′,2′,5′,6′-tetrahydro-[2,3′-bipyridin]-5-yl)acetamide] are less than 0.01 µM and 95%.
Take `COC[C@@H](C)Oc1cc(NC(=O)Cc2ccc(C3=CCCN(C#N)C3)nc2)ncc1Cl` [Compound 36, (R)-N-(5-chloro-4-((1-methoxypropan-2-yl)oxy)pyridin-2-yl)-2-(1′-cyano-1′,2′,5′,6′-tetrahydro-[2,3′-bipyridin]-5-yl)acetamide]: the IC50 is less than 0.01 µM and the inhibition at 10 µM is 95%.
Regarding `CN1CCC(Oc2cc(NC(=O)Cc3ccc(C4=CCCN(C#N)C4)nc3)ncc2Cl)CC1` [Compound 37, N-(5-chloro-4-((1-methylpiperidin-4-yl)oxy)pyridin-2-yl)-2-(1′-cyano-1′,2′,5′,6′-tetrahydro-[2,3′-bipyridin]-5-yl)acetamide], the IC50 is less than 0.01 µM and the inhibition at 10 µM was determined as 94%.
As to `CN1CC[C@@H](Oc2cc(NC(=O)Cc3ccc(C4=CCCN(C#N)C4)nc3)ncc2Cl)C1` [Compound 38, (R)-N-(5-chloro-4-((1-methylpyrrolidin-3-yl)oxy)pyridin-2-yl)-2-(1′-cyano-1′,2′,5′,6′-tetrahydro-[2,3′-bipyridin]-5-yl)acetamide], the concentration for half-maximal inhibition (IC50) was less than 0.01 µM and the inhibition at 10 µM is 88%.
On to `CN1CC[C@H](Oc2cc(NC(=O)Cc3ccc(C4=CCCN(C#N)C4)nc3)ncc2Cl)C1` [Compound 39, (S)-N-(5-chloro-4-((1-methylpyrrolidin-3-yl)oxy)pyridin-2-yl)-2-(1′-cyano-1′,2′,5′,6′-tetrahydro-[2,3′-bipyridin]-5-yl)acetamide], for which the 50% inhibitory concentration (IC50) was in the range of 0.01 to 0.1 µM and the inhibition at 10 µM was determined as 98%.
For the compound `N#CN1CCC=C(c2ccc(CC(=O)Nc3cc(O[C@@H]4CCOC4)c(Cl)cn3)cn2)C1` [Compound 40, (R)-N-(5-chloro-4-((tetrahydrofuran-3-yl)oxy)pyridin-2-yl)-2-(1′-cyano-1′,2′,5′,6′-tetrahydro-[2,3′-bipyridin]-5-yl)acetamide], the IC50 is less than 0.01 µM and the inhibition at 10 µM stood at 91%.
With `N#CN1CCC=C(c2ccc(CC(=O)Nc3cc(O[C@H]4CCOC4)c(Cl)cn3)cn2)C1` [Compound 41, (S)-N-(5-chloro-4-((tetrahydrofuran-3-yl)oxy)pyridin-2-yl)-2-(1′-cyano-1′,2′,5′,6′-tetrahydro-[2,3′-bipyridin]-5-yl)acetamide], the half-inhibitory concentration (IC50) was less than 0.01 µM and the inhibition at 10 µM came to 96%.
On the same counts, the results for `CC(CN(C)C)Oc1cc(NC(=O)Cc2ccc(C3=CCCN(C#N)C3)nc2)ncc1Cl` (stereo not shown) [Compound 42, N-(5-chloro-4-((1-(dimethylamino)propan-2-yl)oxy)pyridin-2-yl)-2-(1′-cyano-1′,2′,5′,6′-tetrahydro-[2,3′-bipyridin]-5-yl)acetamide] are greater than 0.1 µM and 116%.
As for `N#CN1CCC=C(c2ccc(CC(=O)Nc3cc(OC4CCCOC4)c(Cl)cn3)cn2)C1` (stereo not shown) [Compound 43, N-(5-chloro-4-((tetrahydro-2H-pyran-3-yl)oxy)pyridin-2-yl)-2-(1′-cyano-1′,2′,5′,6′-tetrahydro-[2,3′-bipyridin]-5-yl)acetamide], the half-inhibitory concentration (IC50) is less than 0.01 µM and the inhibition at 10 µM amounted to 87%.
In the same order, the values of `CN1CCC[C@@H](Oc2cc(NC(=O)Cc3ccc(C4=CCCN(C#N)C4)nc3)ncc2Cl)C1` [Compound 46, (R)-N-(5-chloro-4-((1-methylpiperidin-3-yl)oxy)pyridin-2-yl)-2-(1′-cyano-1′,2′,5′,6′-tetrahydro-[2,3′-bipyridin]-5-yl)acetamide] are less than 0.01 µM and 88%.
In the same order, the values of `CN1CCC[C@H](Oc2cc(NC(=O)Cc3ccc(C4=CCCN(C#N)C4)nc3)ncc2Cl)C1` [Compound 47, (S)-N-(5-chloro-4-((1-methylpiperidin-3-yl)oxy)pyridin-2-yl)-2-(1′-cyano-1′,2′,5′,6′-tetrahydro-[2,3′-bipyridin]-5-yl)acetamide] are 0.01 to 0.1 µM and 85%.
In the same order, the values of `COc1cc(NC(=O)C(C)c2ccc(C3=CCCN(C#N)C3)nc2)ncc1Cl` (stereo not shown) [Compound 48, N-(5-chloro-4-methoxypyridin-2-yl)-2-(1′-cyano-1′,2′,5′,6′-tetrahydro-[2,3′-bipyridin]-5-yl)propanamide] are less than 0.01 µM and 90%.
Turning to `COc1cc(NC(=O)C(C)c2ccc(C3=CCN(C#N)CC3)nc2)ncc1Cl` (stereo not shown) [Compound 51, N-(5-chloro-4-methoxypyridin-2-yl)-2-(1′-cyano-1′,2′,3′,6′-tetrahydro-[2,4′-bipyridin]-5-yl)propanamide], the IC50 was less than 0.01 µM and the inhibition at 10 µM came out at 102%.
In the same order, the values of `CN1CCCC1COc1cc(NC(=O)Cc2ccc(C3=CCN(C#N)CC3)nc2)ncc1Cl` (stereo not shown) [Compound 54, N-(5-chloro-4-((1-methylpyrrolidin-2-yl)methoxy)pyridin-2-yl)-2-(1′-cyano-1′,2′,3′,6′-tetrahydro-[2,4′-bipyridin]-5-yl)acetamide] are greater than 0.1 µM and 77%.
For the compound `CN1CCCC1COc1cc(NC(=O)Cc2ccc(C3=CCCN(C#N)C3)nc2)ncc1Cl` (stereo not shown) [Compound 55, N-(5-chloro-4-((1-methylpyrrolidin-2-yl)methoxy)pyridin-2-yl)-2-(1′-cyano-1′,2′,5′,6′-tetrahydro-[2,3′-bipyridin]-5-yl)acetamide], the IC50 is greater than 0.1 µM and the inhibition at 10 µM was determined as 86%.
Take `CNC(=O)C(C)Oc1cc(NC(=O)Cc2ccc(C3=CCCN(C#N)C3)nc2)ncc1Cl` (stereo not shown) [Compound 56, 2-((5-chloro-2-(2-(1′-cyano-1′,2′,5′,6′-tetrahydro-[2,3′-bipyridin]-5-yl)acetamido)pyridin-4-yl)oxy)-N-methylpropanamide]: the IC50 is less than 0.01 µM and the inhibition at 10 µM was 100%.
Consider `COc1cc(NC(=O)Cc2ccc(C3CCN(C#N)CC3)nc2)ncc1Cl` [Compound 59, N-(5-chloro-4-methoxypyridin-2-yl)-2-(6-(1-cyanopiperidin-4-yl)pyridin-3-yl)acetamide], for which the IC50 is less than 0.01 µM and the inhibition at 10 µM was determined as 89%.

The values are drawn from patent US20260000692A1, “Substituted N-(Pyridin-2-yl)Acetamide Derivatives as CDK12/13 Inhibitors” (Aurigene Oncology Limited, priority 2022, published 2026).
